Test results as given in patent US20220204577A1, “Synthetic Peptides With Affinity for the Interleukin-10 Receptor, Pharmaceutical Composition and Use Thereof as Immunomodulators for Treating Autoimmune, Inflammatory or Allergic Diseases” (Universidade Federal de Uberlândia, priority 2019, published 2022).

Key:
[1] = Dynamic Light Scattering (DLS), aggregation behavior in solution; format: physicochemical
Protocol: The aggregation behavior of peptides Pep 1, Pep 2, Pep 3, and Pep 4 in solution was determined by Dynamic Light Scattering (DLS), as shown in FIG. 1E. All synthetic peptides were approximately 100% monomeric in solution. The measured hydrodynamic radius of the peptides was similar for Pep 1 (0.82 nm), Pep 2 ([…]), Pep 3 (0.79 nm), and Pep 4 (0.86 nm).

[2] = test system: NFκB, IFN, or TLR4 signaling pathways; test: Reporter cell lines treated with peptides alone (no activating molecule); format: cell-based; details: various concentrations, 12, 24 and 48 hours
Protocol: To investigate the ability of the peptides to interfere with the NFkB, IFN, and TLR4 pathways, reporter cell lines were used. To analyze whether the isolated peptides (without activation molecules) could induce any type of activation, the isolated peptides were tested in the cell lines during 12, 24, and 48 hours of treatment. […] As an example, FIGS. 2A, 2B, and 2C show an analysis of NFkB expression after stimulation with the synthesized peptides described in this report. The cells were treated with the synthesized peptides Pep 1, Pep 2, Pep 3, and Pep 4 at various concentrations for 12, 24, and 48 hours, without activating molecules. Luciferase was then measured after 12 hours of treatment (FIG. 2A), 24 hours of treatment (FIG. 2B), and 48 hours of treatment (FIG. 2C). […] TNF-α (200 ng/mL) was used as a positive control.

NFκB [3] = test: NFkB expression in Jurkart-Dual reporter cells, peptide pre-treatment then TNF-α; format: cell-based; details: peptide then TNF-α
Protocol: The assay was then performed using TNF-α as the activating molecule not only in the control, but after a pre-treatment with the synthesized peptides Pep 1, Pep 2, Pep 3, and Pep 4 at various concentrations. […] In the assays shown in FIGS. 3 A, B, and C, NFkB expression analysis was performed in Jurkart-Dual reporter cells. Cells were treated with peptides for 1 hour and TNF-α (200 ng/ml) was added. Luciferase was measured after 12 hours of treatment (FIG. 3A), 24 hours of treatment (FIG. 3B), and 48 hours of treatment (FIG. 3C).

NFκB [4] = test: NFkB expression in Jurkart-Dual reporter cells, TNF-α pre-treatment then peptides; format: cell-based
Protocol: Then another assay was performed in which the cells were pretreated with TNF-α and the peptides were added later. […] In the assays shown in FIGS. 4 A, B, and C the analysis of NFkB expression was performed in Jurkart-Dual reporter cells. Cells were treated with TNF-α (200 ng/ml) for 1 hour and the peptides were added. Luciferase was measured after 12 hours of treatment (FIG. 4A), 24 hours of treatment (FIG. 4B), and 48 hours of treatment (FIG. 4C). TNF-α (200 ng/mL) was used as a positive control and rIL-10 (Recombinant Interleukin-10) (0.4 ng/mL) as a negative control. * P<0.05; ** P<0.005; *** P<0.0005.

IFN signaling pathway = IFN signaling pathway (SEAP) in Jurkart-Dual reporter cells, peptide pre-treatment then IFN-α; format: cell-based; details: peptide then IFN-α, 48 hours
Protocol: Therefore, we cannot confirm whether they were able to affect the activation pathway (FIGS. 6A, B, and C) in the same or better way than the negative control (rIL-10). In the assays shown in FIGS. 5 (A, B, and C) and 6 (A, B, and C), IFN expression was analyzed in Jurkart-Dual reporter cells. In the assays shown in FIGS. 5 A, B, and C, cells were treated with peptides for 1 hour followed by the addition of IFN-α (104 EU/ml). Secreted Embryonic Alkaline Phosphatase (SEAP) production was measured after 12 hours of treatment (FIG. 5A), 24 hours of treatment (FIG. 5B), and 48 hours of treatment (FIG. 5C). In the assays shown in FIGS. 6 A, B, and C, cells were treated with IFN-α (104 EU/ml) for 1 hour, and then peptides were added. SEAP production was measured after (D) 12 hours of treatment (E) 24 hours of treatment, and (F) 48 hours of treatment. IFN-α (104 EU/mL) was used as a positive control and rIL-10 (0.4 ng/mL) as a negative control. * P<0.05.

TLR4 signaling pathway [5] = test: TLR4 signaling pathway (SEAP) in HEK cells, peptide pre-treatment then LPS; format: cell-based; details: 12 hours
Protocol: (§1) HEK cells were used to investigate the ability of the peptides to reduce activation of the TLR4 signaling pathway after 12 hours of treatment.
(§2) In the assay shown in FIG. 7A, the cells were treated with peptides for 1 hour, then LPS (100 ng/ml) was added. SEAP production was measured after 12 hours of treatment. In the assay shown in FIG. 7B, the cells were treated with LPS (100 ng/ml) for 1 hour, then the peptides were added. SEAP production was measured after 12 hours of treatment. LPS (100 ng/mL) was used as positive control and IL-10 (0.4 ng/mL) as negative control. * P<0.05; ** P<0.005; *** P<0.0005.

TLR4 signaling pathway [6] = test: TLR4 signaling pathway (SEAP) in HEK cells, LPS pre-treatment then peptides; format: cell-based; details: 12 hours
Protocol: as §1, §2

[7] = test system: Dendritic cells from mice bone marrow; test: Co-stimulatory molecules on bone marrow dendritic cells; format: cell-based; details: CD11c+ dendritic cells; 1 μM; 24 hours
Protocol: Dendritic cells from mice bone marrow were isolated to analyze the effect of synthesized peptides Pep 1, Pep 2, Pep 3, and Pep 4 at two concentrations, 1 μM, and 10 μM, on reducing cell activation. […] In the assays, CD11c+CD86 cells (FIG. 8A) and CD11c+CD40+ cells (FIG. 8B) were used after 24 hours of treatment. LPS (100 ng/mL) was used as a positive control. * P<0.05; ** P<0.005.

[8] = peptide 1 hour, then LPS 100 ng/ml, 100 μM
[9] = LPS 100 ng/ml 1 hour, then peptide, 100 μM

With “Pep 4: synthetic peptide with affinity to the Interleukin-10 receptor, SEQ ID No 04, linear chain (HCMTGSRATFPSAPGGGS; INTERLEUKIN-10 MIMETIC PEPTIDE)” the hydrodynamic radius [1] was 0.86 nm, the “NFkB expression (luciferase)” value [2] was “unable to elicit any response” and the NFκB activation (NFκB [3]; 0.005 μM, 48 hours) was “reduced pathway activation”. For the same substance, the NFκB activation (NFκB [3]; 0.01 μM, 48 hours) was “reduced pathway activation”, the NFκB activation (NFκB [3]; 0.05 μM, 48 hours) was “reduced pathway activation” and the NFκB signaling (NFκB [4]; TNF-α then peptide, 0.5 μM, 12 hours) was “able to decrease NFκB signaling”. The “activation of the IFN signaling pathway” value (IFN signaling pathway; 0.05 μM) was “activation of the pathway was reduced”, the “activation of the IFN signaling pathway” value (IFN signaling pathway; 100 μM) was “activation of the pathway was reduced” and the TLR4 pathway activation (TLR4 signaling pathway [5]; [8]) was “significantly reduced pathway activation”. The TLR4 pathway activation (TLR4 signaling pathway [5]; peptide then LPS, 1 μM) was “significantly reduced pathway activation”, the TLR4 pathway activation (TLR4 signaling pathway [5]; peptide then LPS, 5 μM) was “significantly reduced pathway activation” and the TLR4 pathway activation (TLR4 signaling pathway [5]; peptide then LPS, 10 μM) was “significantly reduced pathway activation”. For the same substance, the “activation of the TLR4 pathway” value (TLR4 signaling pathway [6]; [9]) was “activation of the TLR4 pathway was more significantly reduced”, the “activation of the TLR4 pathway” value (TLR4 signaling pathway [6]; LPS then peptide, 0.5 μM) was “activation of the TLR4 pathway was more significantly reduced” and the “activation of the TLR4 pathway” value (TLR4 signaling pathway [6]; LPS then peptide, 1 μM) was “activation of the TLR4 pathway was more significantly reduced”. The “activation of the TLR4 pathway” value (TLR4 signaling pathway [6]; LPS then peptide, 5 μM) was “activation of the TLR4 pathway was more significantly reduced” and the “activation of the TLR4 pathway” value (TLR4 signaling pathway [6]; LPS then peptide, 10 μM) was “activation of the TLR4 pathway was more significantly reduced”.
With “Pep 2: synthetic peptide with affinity to the Interleukin-10 receptor, SEQ ID No 02, without disulfide bridges (HASSAVIKSSSGGGS; INTERLEUKIN-10 MIMETIC PEPTIDE)” the “NFkB expression (luciferase)” value [2] was “unable to elicit any response”, the NFκB activation (NFκB [3]; 0.1 μM, 12, 24 and 48 hours) was “decreased NFκB activation” and the NFκB activation (NFκB [3]; 0.5 μM, 12, 24 and 48 hours) was “decreased NFκB activation”. For the same substance, the NFκB activation (NFκB [3]; 1 μM, 12, 24 and 48 hours) was “decreased NFκB activation”, the NFκB activation (NFκB [3]; 5 μM, 12, 24 and 48 hours) was “decreased NFκB activation” and the NFκB activation (NFκB [3]; 10 μM, 12, 24 and 48 hours) was “decreased NFκB activation”. For the same substance, the NFκB activation (NFκB [3]; 100 μM, 12, 24 and 48 hours) was “decreased NFκB activation”, the NFκB signaling (NFκB [4]; TNF-α 200 ng/ml 1 hour, then peptide, 100 μM, 12 hours) was “able to decrease NFκB signaling” and the NFκB signaling (NFκB [4]; TNF-α then peptide, 0.5 μM, 24 hours) was “less activation of the analyzed signaling pathway”. The NFκB signaling (NFκB [4]; TNF-α then peptide, 1 μM, 12 hours) was “able to decrease NFκB signaling”, the NFκB signaling (NFκB [4]; TNF-α then peptide, 1 μM, 24 hours) was “less activation of the analyzed signaling pathway” and the NFκB signaling (NFκB [4]; TNF-α then peptide, 5 μM, 12 hours) was “able to decrease NFκB signaling”. The NFκB signaling (NFκB [4]; TNF-α then peptide, 5 μM, 24 hours) was “less activation of the analyzed signaling pathway”, the NFκB signaling (NFκB [4]; TNF-α then peptide, 10 μM, 12 hours) was “able to decrease NFκB signaling” and the NFκB signaling (NFκB [4]; TNF-α then peptide, 100 μM, 24 hours) was “less activation of the analyzed signaling pathway”. For the same substance, the TLR4 pathway activation (TLR4 signaling pathway [5]; [8]) was “significantly reduced pathway activation”, the TLR4 pathway activation (TLR4 signaling pathway [5]; peptide then LPS, 0.1 μM) was “significantly reduced pathway activation” and the “activation of the TLR4 pathway” value (TLR4 signaling pathway [6]; [9]) was “activation of the TLR4 pathway was more significantly reduced”. The “activation of the TLR4 pathway” value (TLR4 signaling pathway [6]; LPS then peptide, 0.01 μM) was “activation of the TLR4 pathway was more significantly reduced”, the “activation of the TLR4 pathway” value (TLR4 signaling pathway [6]; LPS then peptide, 0.05 μM) was “activation of the TLR4 pathway was more significantly reduced” and the “activation of the TLR4 pathway” value (TLR4 signaling pathway [6]; LPS then peptide, 0.1 μM) was “activation of the TLR4 pathway was more significantly reduced”. For the same substance, the “activation of the TLR4 pathway” value (TLR4 signaling pathway [6]; LPS then peptide, 0.5 μM) was “activation of the TLR4 pathway was more significantly reduced”, the “activation of the TLR4 pathway” value (TLR4 signaling pathway [6]; LPS then peptide, 1 μM) was “activation of the TLR4 pathway was more significantly reduced” and the “expression of CD40+” value [7] was “decreased the expression of CD86+ and CD40+”. For the same substance, the “expression of CD86+” value [7] was “decreased the expression of CD86+ and CD40+”.
With “Pep 3: synthetic peptide with affinity to the Interleukin-10 receptor, SEQ ID No 03, linear chain (HCFDTQRMEFRMPPGGGS; INTERLEUKIN-10 MIMETIC PEPTIDE)” the hydrodynamic radius [1] was 0.79 nm, the “NFkB expression (luciferase)” value [2] was “unable to elicit any response” and the NFκB activation (NFκB [3]; 0.01 μM, 48 hours) was “reducing pathway activation”. The NFκB activation (NFκB [3]; 0.05 μM, 12 hours) was “reducing pathway activation”, the NFκB signaling (NFκB [4]; TNF-α then peptide, 0.001 μM, 24 hours) was “less activation of the analyzed signaling pathway” and the NFκB signaling (NFκB [4]; TNF-α then peptide, 0.005 μM, 12 hours) was “able to decrease NFκB signaling”. For the same substance, the NFκB signaling (NFκB [4]; TNF-α then peptide, 0.005 μM, 24 hours) was “less activation of the analyzed signaling pathway”, the NFκB signaling (NFκB [4]; TNF-α then peptide, 10 μM, 24 hours) was “less activation of the analyzed signaling pathway” and the “activation of the IFN signaling pathway” value (IFN signaling pathway; 100 μM) was “activation of the pathway was reduced”. The TLR4 pathway activation (TLR4 signaling pathway [5]; [8]) was “significantly reduced pathway activation”, the “activation of the TLR4 pathway” value (TLR4 signaling pathway [6]; [9]) was “activation of the TLR4 pathway was more significantly reduced” and the “activation of the TLR4 pathway” value (TLR4 signaling pathway [6]; LPS then peptide, 0.1 μM) was “activation of the TLR4 pathway was more significantly reduced”. The “activation of the TLR4 pathway” value (TLR4 signaling pathway [6]; LPS then peptide, 0.5 μM) was “activation of the TLR4 pathway was more significantly reduced” and the “activation of the TLR4 pathway” value (TLR4 signaling pathway [6]; LPS then peptide, 10 μM) was “activation of the TLR4 pathway was more significantly reduced”.
